25 compounds from patent US10183952B2, “Thienopyrroles as histone demethylase inhibitors” (ISTITUTO EUROPEO DI ONCOLOGIA S.R.L., priority 2014, dated 2019) can be followed below.

Structures can show the parent of a compound that is named as a salt. Where only a bound is given, the exact number is not on record here.

One may read the IC50 as the concentration at which inhibition is half-maximal.

For assay [1], the system named is human leukemia MV4-11 cells. Briefly: Cell growth, CellTiter-Fluor Cell Viability Assay, MV4-11. It is filed as cell-based. Particulars: 48 h incubation, read-out: IC50 against human leukemia MV4-11 cells. The text has this: (§1) The CellTiter-Fluor™ Cell Viability Assay measures the conserved and constitutive protease activity within live cells and therefore acts as a marker for cell viability.
(§2) CellTiter-Flor® (Promega) is as a nonlytic, single-reagent-addition fluorescence assay that measures the relative number of living cells in a culture population after experimental manipulation. The CellTiter-Fluor™ Cell Viability Assay measures the conserved and constitutive protease activity within live cells and therefore acts as a marker for cell viability.
(§3) Human leukemia MV4-11 cells, (obtained from the Deutsche Sammlung von Mikroorganismen und Zellkulturen, ACC 102) or NB4 cells, (obtained from the Deutsche Sammlung von Mikroorganismen und Zellkulturen) in exponential growth, were incubated for 48 h with different concentrations of the inhibitors. After 48 h a volume of CellTiter-Fluor® Reagent equal to one fifth of volume of cell culture medium was added. The content was mixed and incubates for at least 90 min at 37° C. degree to obtain a stable signal. The fluorescence was recorded using an excitation wavelength of 360 nm and an emission at 535 nm. The IC50 was calculated using GraphPad Software.

The next assay relates to human leukemia NB4 cells. As to the kind of experiment: Cell growth, CellTiter-Fluor Cell Viability Assay, NB4. It is filed as cell-based. Particulars: NB-4, 48 h incubation, read-out: IC50 against human leukemia NB4 cells.
From the text: as §1, §2, §3

For assay [2], the target named is human recombinant KDM1A/CoREST protein (Homo sapiens, UniProt O60341). Briefly: Assay of enzyme inhibition of KDM1A (LSD1), TR-FRET. (In general: In TR-FRET formats the signal depends on donor and acceptor labels being close together.)
Method: The intensity of the light emission is proportional to the level of biotinylated reaction product. The complex of human recombinant KDM1A/CoREST protein was produced in E. coli as separate proteins and co-purified as previously described.
Demethylase reaction was started by the addition of 50 nM histone H3K4 monomethylated.
The resulting mixture was incubated in the dark for 1 h at RT.

Turning to `Cn1c(C(=O)Nc2ccccc2COc2ccc(OC3CCNC3)cc2)cc2sccc21` (stereo not drawn) [Example 16, 4-methyl-N-[2-[(4-pyrrolidin-3-yloxyphenoxy)methyl]phenyl]thieno[3,2-b]pyrrole-5-carboxamide], the results for the IC50 (in assay [1]; with human leukemia NB4 cells; in assay [2]) were less than 10 µM, less than 20 µM and less than 10 µM, respectively.
As for `Cn1c(C(=O)Nc2ccccc2COc2ccc(O[C@H]3CC[C@@H](N)CC3)cc2)cc2sccc21` [Example 9, N-[2-[[4-(cis-4-aminocyclohexoxy)phenoxy]methyl]phenyl]-4-methyl-thieno[3,2-b]pyrrole-5-carboxamide], the results for the IC50 (in assay [1]; in the assay on human leukemia NB4 cells; in assay [2]) were less than 10 µM, less than 20 µM and less than 10 µM, respectively.
As to `Cc1ccc(COc2ccc(OCC3CCNC3)cc2)c(NC(=O)c2cc3sccc3n2C)c1` (stereo not drawn) [Example 55, 4-Methyl-N-[5-methyl-2-[[4-(pyrrolidin-3-ylmethoxy)phenoxy]methyl]phenyl]thieno[3,2-b]pyrrole-5-carboxamide], the IC50 in assay [1] is less than 10 µM; with human leukemia NB4 cells, less than 20 µM; in assay [2] it was less than 10 µM.
For `Cn1c(C(=O)Nc2cccc(CCc3ccc(OC4CCNCC4)cc3)c2)cc2sccc21` [Example 62, 4-Methyl-N-[3-[2-[4-(4-piperidyloxy)phenyl]ethyl]phenyl]thieno[3,2-b]pyrrole-5-carboxamide hydrochloride], the IC50 in assay [1] was less than 10 µM; with human leukemia NB4 cells, less than 20 µM; in assay [2], less than 10 µM.
In the case of `Cn1c(C(=O)Nc2ccccc2COc2ccc(OC3CCNCC3)cc2)cc2sccc21` [Example 1, 4-Methyl-N-[2-[[4-(4-piperidyloxy)phenoxy]methyl]phenyl]thieno[3,2-b]pyrrole-5-carboxamide], the IC50 is less than 10 µM in assay [1], less than 20 µM in the assay on human leukemia NB4 cells and less than 10 µM in assay [2].
As to `Cn1c(C(=O)Nc2ccccc2COc2ccc(OCC3CCNC3)cc2)cc2sccc21` (stereo not drawn) [Example 5, 4-methyl-N-[2-[[4-(pyrrolidin-3-ylmethoxy)phenoxy]methyl]phenyl]thieno[3,2-b]pyrrole-5-carboxamide], the IC50 in assay [1] is less than 10 µM; with human leukemia NB4 cells it was less than 20 µM; in assay [2], less than 10 µM.
As for `CCn1c(C(=O)Nc2cccc(COc3ccc(OC4CCNCC4)cc3)c2)cc2sccc21` [Example 6, 4-ethyl-N-[3-[[4-(4-piperidyloxy)phenoxy]methyl]phenyl]thieno[3,2-b]pyrrole-5-carboxamide], the IC50 in assay [1] was less than 10 µM; in the assay with human leukemia NB4 cells, less than 20 µM; in assay [2], less than 10 µM.
Consider `Cn1c(C(=O)Nc2ccccc2COc2cccc(OC3CCNCC3)c2)cc2sccc21` [Example 18, 4-methyl-N-[2-[[3-(4-piperidyloxy)phenoxy]methyl]phenyl]thieno[3,2-b]pyrrole-5-carboxamide], for which the figures for the IC50 (in assay [1]; in the assay with human leukemia NB4 cells; in assay [2]) were less than 10 µM, less than 20 µM and less than 10 µM, respectively.
For `Cn1c(C(=O)Nc2cccc(CN3CCOCC3)c2COc2ccc(OC3CCNCC3)cc2)cc2sccc21` [Example 54, 4-Methyl-N-[3-(morpholinomethyl)-2-[[4-(4-piperidyloxy)phenoxy]methyl]phenyl]thieno[3,2-b]pyrrole-5-carboxamide dihydrochloride], the IC50 was less than 10 µM in assay [1], less than 20 µM with human leukemia NB4 cells and less than 10 µM in assay [2].
Take `CCOCc1cccc(NC(=O)c2cc3sccc3n2C)c1COc1ccc(OC2CCNCC2)cc1` [Example 50, N-[3-(Ethoxymethyl)-2-[[4-(4-piperidyloxy)phenoxy]methyl]phenyl]-4-methyl-thieno[3,2-b]pyrrole-5-carboxamide hydrochloride]: the concentration for half-maximal inhibition (IC50) in assay [1] was less than 10 µM; in the assay on human leukemia NB4 cells, less than 20 µM; in assay [2], less than 10 µM.
In the case of `CC(C)OCc1cccc(NC(=O)c2cc3sccc3n2C)c1COc1ccc(OC2CCNCC2)cc1` [Example 51, N-[3-(Isopropoxymethyl)-2-[[4-(4-piperidyloxy)phenoxy]methyl]phenyl]-4-methyl-thieno[3,2-b]pyrrole-5-carboxamide], the IC50 in assay [1] was less than 10 µM; in the assay with human leukemia NB4 cells it was less than 20 µM; in assay [2], less than 10 µM.
On to `CN1CCC(Oc2ccc(OCc3cccc(NC(=O)c4cc5sccc5n4C)c3)cc2)CC1` [Example 15, 4-methyl-N-[3-[[4-[(1-methyl-4-piperidyl)oxy]phenoxy]methyl]phenyl]thieno[3,2-b]pyrrole-5-carboxamide], for which the IC50 in assay [1] was less than 10 µM; in the assay with human leukemia NB4 cells, less than 20 µM; in assay [2], less than 10 µM.
As for `Cn1c(C(=O)Nc2ccccc2COc2ccc(OC3CCCNCC3)cc2)cc2sccc21` (stereo not drawn) [Example 7, N-[2-[[4-(azepan-4-yloxy)phenoxy]methyl]phenyl]-4-methyl-thieno[3,2-b]pyrrole-5-carboxamide hydrochloride], the IC50 was less than 10 µM in assay [1], less than 20 µM in the assay with human leukemia NB4 cells and less than 10 µM in assay [2].
`CCn1c(C(=O)Nc2ccccc2COc2ccc(OC3CCN(C)CC3)cc2)cc2sccc21` [Example 12, 4-ethyl-N-[2-[[4-[(1-methyl-4-piperidyl)oxy]phenoxy]methyl]phenyl]thieno[3,2-b]pyrrole-5-carboxamide]: the IC50 in assay [1] is less than 10 µM; with human leukemia NB4 cells, less than 20 µM; in assay [2], less than 10 µM.
On to `CN1CCC(Oc2ccc(OCc3ccccc3NC(=O)c3cc4sccc4n3C)cc2)CC1` [Example 13, 4-methyl-N-[2-[[4-[(1-methyl-4-piperidyl)oxy]phenoxy]methyl]phenyl]thieno[3,2-b]pyrrole-5-carboxamide], for which the values for the IC50 (in assay [1]; in the assay with human leukemia NB4 cells; in assay [2]) were less than 10 µM, less than 20 µM and less than 10 µM, respectively.
Regarding `CN1CCCC(COc2cccc(NC(=O)c3cc4sccc4n3C)c2)C1` (stereo not drawn) [Example 19, 4-methyl-N-[3-[(1-methyl-3-piperidyl)methoxy]phenyl]thieno[3,2-b]pyrrole-5-carboxamide], the IC50 is less than 10 µM in assay [1], less than 20 µM with human leukemia NB4 cells and less than 10 µM in assay [2].
Turning to `Cn1c(C(=O)Nc2ccccc2COc2ccc(O[C@H]3CC[C@H](N)CC3)cc2)cc2sccc21` [Example 14, N-[2-[[4-(trans-4-aminocyclohexoxy)phenoxy]methyl]phenyl]-4-methyl-thieno[3,2-b]pyrrole-5-carboxamide], the figures for the IC50 (in assay [1]; with human leukemia NB4 cells; in assay [2]) were less than 10 µM, less than 20 µM and less than 10 µM, respectively.
Regarding `Cn1c(C(=O)Nc2ccccc2COc2ccc(OC[C@@H]3CCNC3)cc2)cc2sccc21` [Example 4, 4-methyl-N-[2-[[4-[[(3R)-pyrrolidin-3-yl]methoxy]phenoxy]methyl]phenyl]thieno[3,2-b]pyrrole-5-carboxamide], the IC50 in assay [1] is less than 10 µM; in the assay on human leukemia NB4 cells, less than 20 µM; in assay [2], less than 10 µM.
As to `CCn1c(C(=O)Nc2cccc(COC)c2COc2ccc(OC[C@@H]3CCNC3)cc2)cc2sccc21` [Example 53, 4-Ethyl-N-[3-(methoxymethyl)-2-[[4-[[(3R)-pyrrolidin-3-yl]methoxy]phenoxy]methyl]phenyl]thieno[3,2-b]pyrrole-5-carboxamide; trifluoroacetic acid], the results for the IC50 (in assay [1]; in the assay on human leukemia NB4 cells; in assay [2]) were less than 10 µM, less than 20 µM and less than 10 µM, respectively.
`CN1CCC(Oc2cccc(OCc3ccccc3NC(=O)c3cc4sccc4n3C)c2)CC1` [Example 17, 4-methyl-N-[2-[[3-[(1-methyl-4-piperidyl)oxy]phenoxy]methyl]phenyl]thieno[3,2-b]pyrrole-5-carboxamide]: the values for the IC50 (in assay [1]; in the assay on human leukemia NB4 cells; in assay [2]) were less than 10 µM, less than 20 µM and less than 10 µM, respectively.
As for `CCN1CCC(Oc2ccc(OCc3ccccc3NC(=O)c3cc4sccc4n3C)cc2)CC1` [Example 3, N-[2-[[4-[(1-ethyl-4-piperidyl)oxy]phenoxy]methyl]phenyl]-4-methyl-thieno[3,2-b]pyrrole-5-carboxamide], the half-maximal inhibitory concentration (IC50) in assay [1] was less than 10 µM; in the assay with human leukemia NB4 cells, less than 20 µM; in assay [2], less than 10 µM.
As for `CCOCc1cccc(NC(=O)c2cc3sccc3n2C)c1COc1ccc(OC[C@@H]2CCNC2)cc1` [Example 52, N-[3-(Ethoxymethyl)-2-[[4-[[(3R)-pyrrolidin-3-yl]methoxy]phenoxy]methyl]phenyl]-4-methyl-thieno[3,2-b]pyrrole-5-carboxamide hydrochloride], the results for the IC50 (in assay [1]; in the assay on human leukemia NB4 cells; in assay [2]) were less than 10 µM, less than 20 µM and less than 10 µM, respectively.
On to `CN1CCN(Cc2ccc(OCc3ccccc3NC(=O)c3cc4sccc4n3C)cc2)CC1` [Example 20, 4-methyl-N-[2-[[4-[(4-methylpiperazin-1-yl)methyl]phenoxy]methyl]phenyl]thieno[3,2-b]pyrrole-5-carboxamide], for which the results for the IC50 (in assay [1]; with human leukemia NB4 cells; in assay [2]) were less than 10 µM, less than 20 µM and less than 10 µM, respectively.
For `Cn1c(C(=O)Nc2ccccc2CNc2ccc(OC3CCNCC3)cc2)cc2sccc21` [Example 63, 4-Methyl-N-[2-[[4-(4-piperidyloxy)anilino]methyl]phenyl]thieno[3,2-b]pyrrole-5-carboxamide dihydrochloride], the 50% inhibitory concentration (IC50) was less than 10 µM in assay [1], less than 20 µM in the assay on human leukemia NB4 cells and less than 10 µM in assay [2].
As to `CCn1c(C(=O)Nc2ccccc2COc2ccc(OC3CCNCC3)cc2)cc2sccc21` [Example 8, 4-ethyl-N-[2-[[4-(4-piperidyloxy)phenoxy]methyl]phenyl]thieno[3,2-b]pyrrole-5-carboxamide], the figures for the IC50 (in assay [1]; with human leukemia NB4 cells; in assay [2]) were less than 10 µM, less than 20 µM and less than 10 µM, respectively.
